What all share (experiment): inhibition of tumour cell growth, NCI panel, 48 h
The subject of experiment [1] is SW-620 colon.
Experiment [2] relates to T-47D breast.
Experiment [3] relates to KM12 colon.
The test system of experiment [4] is A498 renal.
The subject of experiment [5] is NCI-H23 lung.
In experiment [6] the test system is M14 melanoma.
Experiment [7] concerns ACHN renal.
In experiment [8] the test system is HCT-15 colon.
For experiment [9], the system named is NCI-H460 lung.
Experiment [10] has as its system K-562 leukemia.

The structures appear in SMILES notation.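 Five concentrations, 48 hours, 96-well plates. TGI is the concentration that stops growth completely.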

With `N#CC1(C#N)C(C#N)(C#N)C1(C#N)C(N)=O`, the TGI in experiment [1], in experiment [2], in experiment [3], in [4], in experiment [5] and in [6] was over 100 µM each time. The TGI in experiment [7], in experiment [8], in experiment [9] and in [10] was over 100 µM in each case.
For `CCCC[C@@H](C)/C=C1\CN2CCC[C@H]2[C@@](C)(OCc2ccccc2)[C@@H]1O`, the TGI in [1] was over 50 µM; in experiment [2], over 19.3 µM; in experiment [3], over 18.9 µM; in [4] it was over 50 µM; in experiment [5] it was over 50 µM; in experiment [6], over 50 µM. The TGI in [7], in experiment [8], in experiment [9] and in [10] was over 50 µM in each case.
Take `O[C@@H]1C=C[C@]23CCN(Cc4cc5c(cc42)OCO5)[C@@H]3C1`: the TGI in experiment [1], in [2], in experiment [3], in [4], in [5] and in experiment [6] was over 100 µM throughout. In addition, the TGI in experiment [7], in experiment [8], in experiment [9] and in experiment [10] was over 100 µM each time.
As to `Cc1cn(C2CCC(CO)(CF)O2)c(=O)[nH]c1=O` (stereo not given), the TGI in experiment [1], in [2], in experiment [3], in experiment [4], in experiment [5] and in experiment [6] was over 100 µM throughout. In addition, the TGI in [7], in experiment [8], in experiment [9] and in experiment [10] was over 100 µM in each case.
As to `CN1/C(=C/C=C/C=C/C=C2C(=O)c3ccccc3C2=O)C(C)(C)c2ccccc21`, the TGI was over 100 µM in experiment [1]; over 100 µM in experiment [2]; over 100 µM in experiment [3]; 65.2 µM in experiment [4]; over 100 µM in experiment [5]; over 100 µM in experiment [6]. In addition, the TGI in experiment [7], in experiment [8], in experiment [9] and in experiment [10] was over 100 µM each time.
On to `Cn1cnc(N)c(N=O)c1=O`, for which the TGI in experiment [1], in experiment [2], in [3], in [4], in experiment [5] and in experiment [6] was over 10 µM throughout. In addition, the TGI in [7], in experiment [8], in [9] and in [10] was over 10 µM throughout.
With `CC1C(NNC(N)=O)Oc2cc3c(cc2C1c1ccccc1O)OCO3` (stereo not given), the TGI was 32.8 µM in experiment [1]; over 100 µM in experiment [2]; over 100 µM in experiment [3]; 68.9 µM in experiment [4]; over 100 µM in [5]; over 100 µM in experiment [6]. The TGI is over 100 µM in experiment [7], over 100 µM in [8], over 100 µM in experiment [9] and 64.1 µM in experiment [10].
Consider `CC1CC/C(=C\c2ccc(F)cc2)C2=C1C(c1ccc(F)cc1)N1C(=O)CSC1=N2` (stereo not given), for which the TGI in experiment [1], in [2], in experiment [3], in experiment [4], in experiment [5] and in experiment [6] was over 100 µM throughout. Moreover, the TGI in experiment [7], in experiment [8], in [9] and in experiment [10] was over 100 µM throughout.
Take `NS(=O)(=O)c1nc(S(=O)(=O)O)c2[nH]cnc2n1`: the TGI in experiment [1], in experiment [2], in experiment [3], in [4], in experiment [5] and in experiment [6] was over 100 µM in each case. The TGI in [7], in experiment [8], in experiment [9] and in experiment [10] was over 100 µM in each case.
With `C/C=C(\C)C(=O)OC1CC(OC(C)=O)C2(C(=O)OC)COC3C2C1(C)C1C2(C(=O)OC)OCC1(C3O)C1(O)C3CC(C4(O)C=COC4O3)C1(C)O2` (stereo not given), the TGI in experiment [1], in [2], in experiment [3], in experiment [4], in experiment [5] and in experiment [6] was over 100 µM throughout. Also, the TGI in [7], in experiment [8], in experiment [9] and in experiment [10] was over 100 µM in each case.
For `CC(=O)n1cc(C2CC23N=C(c2ccccc2)OC3=O)c2ccccc21` (stereo not given), the TGI in experiment [1] was 56.7 µM; in [2], over 100 µM; in experiment [3] it was 48.7 µM; in experiment [4], 56.7 µM; in experiment [5], 42 µM; in experiment [6] it was 34.9 µM. Moreover, the TGI in experiment [7] was 38.3 µM; in experiment [8], 58.9 µM; in [9], over 64.9 µM; in experiment [10], 77.6 µM.

The record behind these values is PubChem BioAssay (NCI).
